The Deep4Chem optical property database
Where “and” joins values, the source holds several entries; their conditions need not be identical. Equal entries are not always repeated. Blank lines part the entries; values can stand above or below the compound they belong to.

Assay: solvent given as SMILES

Structure (SMILES): Cc1ccc(C(=O)/C=C/c2ccc(N(C)C)cc2)cc1
emission maximum (in C1CCOC1): 503 nm | emission maximum (in CC#N): 529 nm | emission maximum (in CC(=O)O): 512 nm | emission maximum (in CC(C)=O): 516 nm | emission maximum (in CCO): 533 nm | emission maximum (in CN(C)C=O): 528 nm | emission maximum (in CO): 533 nm | emission maximum (in Cc1ccccc1): 477 nm | emission maximum (in ClC(Cl)Cl): 508 nm | emission maximum (in c1ccccc1): 473 nm

emission maximum (in CC#N): 422 nm
Structure (SMILES): N#Cc1nn(-c2ccc(F)cc2)nc1N1CCCC1

Structure (SMILES): CCCC1=Cc2nc1ccc1[nH]c(cc1CCC)c1nc(c(OC(C)=O)cc3[nH]c2cc3CCC)C(CCC)=C1
emission maximum (in Cc1ccccc1): 650 nm

emission maximum (in CCO): 462 nm
Structure (SMILES): COc1cc(OC)cc(C(=O)OCc2c(C)c(=O)n3c(=O)c(C)c(C)n23)c1

Structure (SMILES): CC(C)(C)c1ccc2c(c1)c1cc(C(C)(C)C)cc3c1n2-c1cc(-c2ccccc2F)cc2c1B3c1cc(C(C)(C)C)cc3c4cc(C(C)(C)C)ccc4n-2c13
emission maximum (in Cc1ccccc1): 499.76 nm

emission maximum (in C1CCOC1): 659 nm
Structure (SMILES): CC1=C(C#Cc2ccc(N(c3ccccc3)c3ccccc3)cc2)C(C)=[N+]2C1=C(c1ccccc1)c1c(C)c(C#Cc3ccc(N(c4ccccc4)c4ccccc4)cc3)c(C)n1[B-]2(F)F

Structure (SMILES): Cc1cc(C)c(B(c2c(C)cc(C)cc2C)c2ccc3ccc4cccc5ccc2c3c45)c(C)c1
emission maximum (in Cc1ccccc1): 423 nm

emission maximum (in C1CCOC1): 542 nm
Structure (SMILES): CCCCCCCCCCCCOc1cc(C(=O)Nc2ccc(-c3ccc4c(c3)C(=O)c3cc(-c5ccc(NC(=O)c6cc(OCCCCCCCCCCCC)c(OCCCCCCCCCCCC)c(OCCCCCCCCCCCC)c6)cc5)ccc3-4)cc2)cc(OCCCCCCCCCCCC)c1OCCCCCCCCCCCC

emission maximum (in ClCCl): 375 nm
Structure (SMILES): C[Si]1(C)c2ccc(C#Cc3ccccc3)cc2C=Cc2cc(C#Cc3ccccc3)ccc21

emission maximum (in CCO): 412 nm
Structure (SMILES): CC(C)=CCN1C(=O)c2cccc3c2c(cc2nc(C)oc23)C1=O

emission maximum (in ClC(Cl)Cl): 475 nm
Structure (SMILES): COc1ccc2c3ccc(OC)cc3c3cc4c(C)cc(=O)oc4cc3c2c1

emission maximum (in C1CCOC1): 490 nm
Structure (SMILES): [O-]c1ccccc1/C=N/c1ccccc1/N=C/c1ccccc1[O-]

emission maximum (in C1CCOC1): 713 nm | emission maximum (in CS(C)=O): 731 nm | emission maximum (in ClCCl): 710 nm
Structure (SMILES): CCOC(=O)c1[nH]c(C)c(/C=C/C2=[N+]3C(=C(c4cc(OC)cc(OC)c4)c4c(C)c(I)c(/C=C/c5c(C)[nH]c(C(=O)OCC)c5C)n4[B-]3(F)F)C(C)=C2I)c1C

emission maximum (in ClCCl): 560 nm
Structure (SMILES): N#Cc1cc(/C=C/c2ccc(N(c3ccccc3)c3ccccc3)cc2)ccc1/C=C/c1ccc(/C=C/c2ccc(N(c3ccccc3)c3ccccc3)cc2)cc1

emission maximum (in ClCCl): 393 nm
Structure (SMILES): c1ccc(B2Nc3cc4c(cc3-c3occc32)NB(c2ccccc2)c2ccoc2-4)cc1

emission maximum (in C1CCCCC1): 430 nm
Structure (SMILES): N#C/C(=C\c1ccccc1)c1nc2ccccc2s1

emission maximum (in C1CCOC1): 468 nm
Structure (SMILES): COc1cc2c(cc1-c1ccc(F)cc1)Cc1c3c(c4c(c1-2)-c1cc(OC)c(-c2ccc(F)cc2)cc1C4)C(=O)N(CCC(C)C)C3=O

emission maximum (in CS(C)=O): 441 nm
Structure (SMILES): Cc1ccc(C2C3=C(CCCC3=O)Nc3c2c(=O)oc2ccccc32)cc1 (stereo not drawn)

emission maximum (in ClCCl): 662 nm
Structure (SMILES): COC(=O)/C=C/C=C/C1=CC2=C(c3c(C)cc(C)cc3C)c3cc(/C=C/C=C/C(=O)OC)cn3[B-](F)(F)[N+]2=C1

emission maximum (in ClCCl): 533 nm
Structure (SMILES): COc1ccc(/C=C/c2nc(N3CCOCC3)c3c([n+]2[O-])CCCC3)cc1

emission maximum (in C1CCCCC1): 418 nm | emission maximum (in CC#N): 433 nm | emission maximum (in CO): 429 nm | emission maximum (in ClCCl): 431 nm
Structure (SMILES): COc1c2ccccc2c(OC)c2c1c1cccc(OC)c1n2C

emission maximum (in CCO): 465 nm | emission maximum (in ClC(Cl)Cl): 456 nm
Structure (SMILES): CCOc1ccc2c(-c3nc(-c4cccc(C)c4)no3)cc(=O)oc2c1

Structure (SMILES): C=C(C)C(CN1C(=O)c2cccc3c2c(cc2nc(C)oc23)C1=O)OO (stereo not drawn)
emission maximum (in CCO): 412 nm

emission maximum (in ClCCl): 512 nm
Structure (SMILES): CC(C)(C)c1ccc(-c2ccc(-c3ccc(C(C)(C)C)cc3)c3nsnc23)cc1

Structure (SMILES): Cc1cc(-c2nc(-c3ccccc3)nc(-c3ccccc3)n2)ccc1N1c2ccccc2C2(c3ccccc3-c3ccccc32)c2ccccc21
emission maximum (in Cc1ccccc1): 481 nm

Structure (SMILES): CCCCN1c2ccccc2Sc2cc(/C=C/c3nc4nc5ccccc5nc4s3)ccc21
emission maximum (in C1CCCCC1): 558 nm | emission maximum (in C1CCOC1): 670 nm | emission maximum (in C1COCCO1): 640 nm | emission maximum (in CC(C)=O): 739 nm | emission maximum (in CCOC(C)=O): 670 nm | emission maximum (in CCOCC): 635 nm | emission maximum (in Cc1ccccc1): 621 nm | emission maximum (in ClCCl): 729 nm

emission maximum (in ClCCl): 650 nm
Structure (SMILES): CC1=C(C)C(c2c(C)c(C)c3n2[B-](F)(F)[N+]2=C(C)C(C)=C(C)C2=C3)=[N+]2C1=Cc1c(C)c(C)c(C)n1[B-]2(F)F

Structure (SMILES): COc1ccc(C2=C(c3ccc(C)cc3)C(c3ccccc3)=[N+]3C2=Nc2c(-c4ccc(OC)cc4)c(-c4ccc(C)cc4)c(-c4ccccc4)n2[B-]3(F)F)cc1
emission maximum (in Cc1ccccc1): 709 nm

emission maximum (in ClCCl): 517 nm
Structure (SMILES): CCCCCCN1C(=O)c2cccc3c(-c4ccc(-c5cc(-c6ccc(Cl)cc6)n(-c6ccccc6)n5)s4)ccc(c23)C1=O

emission maximum (in ClCCl): 541 nm
Structure (SMILES): F[B-]1(F)n2c(Cl)c(Cl)c(Br)c2C(Oc2ccccc2)=C2C(Br)=C(Cl)C(Cl)=[N+]21

Structure (SMILES): CC1=[N+]2C(=C(c3ccc(N4CCOCC4)cc3)c3ccc(C)n3[B-]2(F)F)C=C1
emission maximum (in C1CCCCC1): 520 nm | emission maximum (in C1CCOC1): 695 nm and 528 nm | emission maximum (in CC#N): 534 nm | emission maximum (in CC(=O)C(C)(C)C): 530 nm | emission maximum (in CC(C)=O): 517 nm | emission maximum (in CCCCCC): 520 nm | emission maximum (in CCOC(C)=O): 520 nm | emission maximum (in CO): 521 nm | emission maximum (in Cc1ccccc1): 524 nm | emission maximum (in ClC(Cl)Cl): 531 nm

emission maximum (in C1CCOC1): 503 nm
Structure (SMILES): O=C(c1ccc(C(=C(c2ccc(C(=O)c3ccc(-n4c5ccccc5c5ccccc54)cc3)cc2)c2ccc(C(=O)c3ccc(-n4c5ccccc5c5ccccc54)cc3)cc2)c2ccccc2)cc1)c1ccc(-n2c3ccccc3c3ccccc32)cc1

emission maximum (in ClCCl): 419 nm
Structure (SMILES): ClP1(Cl)=N[P@](Cl)(Oc2ccc3ccc4cccc5ccc2c3c45)=N[P@@](Cl)(Oc2ccc3ccc4cccc5ccc2c3c45)=N1

Structure (SMILES): Fc1ccc(N(c2ccc(F)cc2)c2ccc3c4cccc5c(N(c6ccc(F)cc6)c6ccc(F)cc6)ccc(c6cccc2c63)c54)cc1
emission maximum (in C1CCCCC1): 529 nm | emission maximum (in C1CCOC1): 544 nm | emission maximum (in CC#N): 548 nm | emission maximum (in Cc1ccccc1): 540 nm | emission maximum (in ClCCl): 546 nm

Structure (SMILES): CCCC1=Cc2nc1ccc1[nH]c(cc1CCC)c1nc(ccc3[nH]c2cc3CCC)C(CCC)=C1
emission maximum (in Cc1ccccc1): 641 nm

emission maximum (in CCO): 541 nm
Structure (SMILES): CNc1cc2nc3cc(Cl)c(Cl)cc3nc2cc1NC

emission maximum (in CCO): 658 nm | emission maximum (in ClC(Cl)Cl): 647 nm | emission maximum (in O): 666 nm
Structure (SMILES): CCOC(=O)c1ccccc1-c1c2ccc(=[N+](CC)CC)cc-2oc2c1c(=O)oc1cc3c(cc12)CCCN3C

Structure (SMILES): O=CC1=C(c2ccc(-c3cccs3)s2)CCC1
emission maximum (in C1CCOC1): 479 nm | emission maximum (in CC#N): 493 nm | emission maximum (in CCCCCC): 456 nm | emission maximum (in CCO): 514 nm | emission maximum (in OCCOCCO): 527 nm | emission maximum (in c1ccncc1): 494 nm

emission maximum (in ClCCl): 373 nm
Structure (SMILES): C[Si]1(C)c2ccc(-c3cccs3)cc2C=Cc2cc(-c3cccs3)ccc21

emission maximum (in ClCCl): 472 nm
Structure (SMILES): CC(C)c1cccc(C(C)C)c1N1C(c2ccccc2)=Cc2ccc3ccccc3[n+]2[B-]1(F)F

emission maximum (in ClCCl): 556 nm
Structure (SMILES): CN(C)c1ccc(N2c3sc4ccccc4c3Sc3c2sc2ccccc32)cc1

emission maximum (in CC#N): 583 nm | emission maximum (in ClCCl): 574 nm
Structure (SMILES): CCN(CC)c1ccc(/N=N/c2nc3ccc(OC)cc3s2)cc1

Structure (SMILES): CCNc1cc2oc(=O)cc(C(F)(F)F)c2cc1C
emission maximum (in CC#N): 481 nm

emission maximum (in c1cc(-c2cccc(-n3c4ccccc4c4ccccc43)c2)cc(-n2c3ccccc3c3ccccc32)c1): 459 nm
Structure (SMILES): c1ccc(-c2nc(-c3ccccc3)nc(-c3ccc(-c4ccc5c(c4)[Si](c4ccccc4)(c4ccccc4)c4cc(-c6ccc(-c7nc(-c8ccccc8)nc(-c8ccccc8)n7)cc6)ccc4N5c4ccccc4)cc3)n2)cc1

emission maximum (in CC1CCCCC1): 329 nm | emission maximum (in CC#N): 333 nm | emission maximum (in CO): 353 nm
Structure (SMILES): C=CCOc1ccc(-c2nc3cc(C(NC(=O)OC(C)(C)C)C(=O)OC)ccc3o2)cc1 (stereo not drawn)

emission maximum (in C1CCCCC1): 403.35 nm | emission maximum (in CC#N): 514.77 nm | emission maximum (in ClCCl): 472.82 nm
Structure (SMILES): O=S1(=O)c2ccccc2-c2cc(-c3c4ccccc4cc4ccccc34)ccc21

emission maximum (in ClCCl): 403 nm
Structure (SMILES): COc1cc2c(cc1OC)C1=C[C@H](c3ccccc3)C3(C(C#N)=C(C#N)N1CC2)c1cc(Br)ccc1-c1ccc(Br)cc13

emission maximum (in C1COCCO1): 714 nm
Structure (SMILES): CCCCOc1ccc(/C=C/C2=[N+]3C(=C(c4ccc(I)cc4)c4c(/C=C/c5ccc(N(C)C)cc5)cc(/C=C/c5ccc(OC)cc5)n4[B-]3(F)F)C(/C=C/c3ccc(OCCOCCOC)cc3)=C2)cc1

emission maximum (in ClCCl): 391 nm
Structure (SMILES): COc1ccc(-c2ccc3c(c2)C=Cc2cc(-c4ccc(OC)cc4)ccc2[Si]3(C)C)cc1

emission maximum (in CO): 606.31 nm
Structure (SMILES): c1cc2c(C3SCCCS3)c3ccc(=[N+]4CCCCC4)cc-3oc2cc1N1CCCCC1

Structure (SMILES): Cn1c(=O)c(/N=N/c2ccc(S(=O)(=O)O)c3ccccc23)c(O)c2ccccc21
emission maximum (in C1CCOC1): 548 nm | emission maximum (in CC(C)=O): 564 nm | emission maximum (in CCOC(C)=O): 555 nm | emission maximum (in CO): 562 nm | emission maximum (in CS(C)=O): 571 nm | emission maximum (in Cc1ccccc1): 540 nm | emission maximum (in ClCCl): 541 nm | emission maximum (in O): 582 nm

emission maximum (in ClCCl): 372 nm
Structure (SMILES): c1ccc2c(c1)-c1cc(-n3c4ccccc4c4ccccc43)ccc1C21c2ccccc2-n2c3ccccc3c3cccc1c32 (stereo not drawn)

emission maximum (in ClCCl): 457 nm
Structure (SMILES): c1ccc2c(c1)OP1(=NP(Oc3ccc4ccc5cccc6ccc3c4c56)(Oc3ccc4ccc5cccc6ccc3c4c56)=NP(Oc3ccc4ccc5cccc6ccc3c4c56)(Oc3ccc4ccc5cccc6ccc3c4c56)=N1)Oc1ccccc1-2

emission maximum (in C1CCCCC1): 587 nm | emission maximum (in c1ccccc1): 635 nm
Structure (SMILES): CNc1ccc2c(c1)C(=O)c1ccccc1-2

emission maximum (in ClCCl): 598 nm
Structure (SMILES): CC1=C(C2=C(C)C(C)=[N+]3C2=Cc2cc(C)c(C)n2[B-]3(F)F)C2=Cc3cc(C)c(C)n3[B-](F)(F)[N+]2=C1C

emission maximum (in C1CCOC1): 428.33 nm
Structure (SMILES): CC[NH+](CC)c1ccc(-c2nc3c(nc2-c2ccc(B(c4c(C)cc(C)cc4C)c4c(C)cc(C)cc4C)cc2)c2ccccc2n3C)cc1

emission maximum (in ClC(Cl)Cl): 382 nm
Structure (SMILES): N#Cc1cc2sccc2c2c1ccc1ccccc12

emission maximum (in CO): 420 nm
Structure (SMILES): Clc1ccc(/C=C(\c2ccccc2)c2nc3ccccc3o2)cc1
